Measurements: article PMC12155096 (International Journal of Molecular Sciences, 2025)
pIC50: −log10 of the molar value. Like-named read-outs stand apart in the source and are kept apart here.

How the values were obtained:
[1] = target: Photinus pyralis (firefly) luciferase (Photinus pyralis, UniProt P08659); assay: biochemical; assay type: biochemical
human CYP1A2 [2] = target: T1, human CYP1A2 (Homo sapiens, UniProt P05177); conditions: human
T1 sequence (P05177 1-516): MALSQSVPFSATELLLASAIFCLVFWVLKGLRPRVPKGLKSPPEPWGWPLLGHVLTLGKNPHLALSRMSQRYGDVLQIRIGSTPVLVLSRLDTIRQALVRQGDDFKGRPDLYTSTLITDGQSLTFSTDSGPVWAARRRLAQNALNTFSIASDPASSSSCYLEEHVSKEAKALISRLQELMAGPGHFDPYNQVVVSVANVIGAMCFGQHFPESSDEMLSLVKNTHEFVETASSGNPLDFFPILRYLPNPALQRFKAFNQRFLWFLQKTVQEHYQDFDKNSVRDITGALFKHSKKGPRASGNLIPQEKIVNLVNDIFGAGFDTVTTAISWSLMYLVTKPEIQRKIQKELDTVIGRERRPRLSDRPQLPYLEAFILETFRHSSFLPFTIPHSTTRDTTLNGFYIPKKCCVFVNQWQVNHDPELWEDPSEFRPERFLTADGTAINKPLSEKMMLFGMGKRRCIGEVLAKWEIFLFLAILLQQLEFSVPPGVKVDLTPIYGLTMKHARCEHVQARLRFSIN

human CYP2C9 [3] = target: T2, human CYP2C9 (Homo sapiens, UniProt P11712); conditions: human
human CYP2C19 [4] = target: T3, human CYP2C19 (Homo sapiens, UniProt P33261); conditions: human
human CYP2D6 [5] = target: T4, human CYP2D6 (Homo sapiens, UniProt P10635); conditions: human
CYP3A4 [6] = target: T5, CYP3A4 (Homo sapiens, UniProt P08684)
human CYP1A2 [7] = target: T1, human CYP1A2; assay: biochemical; conditions: for pIC50: CYP1A2 IC50 (half-maximal inhibitory concentration)
human CYP2C9 [8] = target: T2, human CYP2C9; assay: biochemical
human CYP2C19 [9] = target: T3, human CYP2C19; assay: biochemical; conditions: for pIC50: CYP2C19 IC50 (half-maximal inhibitory concentration)
human CYP2D6 [10] = target: T4, human CYP2D6; assay: biochemical
CYP3A4 [11] = target: T5, CYP3A4; assay: biochemical; conditions: for pIC50: CYP3A4 IC50 (half-maximal inhibitory concentration)
[12] = CYP2C9 IC50 (half-maximal inhibitory concentration)
[13] = CYP2D6 IC50 (half-maximal inhibitory concentration)

T3 sequence (P33261 whole entry): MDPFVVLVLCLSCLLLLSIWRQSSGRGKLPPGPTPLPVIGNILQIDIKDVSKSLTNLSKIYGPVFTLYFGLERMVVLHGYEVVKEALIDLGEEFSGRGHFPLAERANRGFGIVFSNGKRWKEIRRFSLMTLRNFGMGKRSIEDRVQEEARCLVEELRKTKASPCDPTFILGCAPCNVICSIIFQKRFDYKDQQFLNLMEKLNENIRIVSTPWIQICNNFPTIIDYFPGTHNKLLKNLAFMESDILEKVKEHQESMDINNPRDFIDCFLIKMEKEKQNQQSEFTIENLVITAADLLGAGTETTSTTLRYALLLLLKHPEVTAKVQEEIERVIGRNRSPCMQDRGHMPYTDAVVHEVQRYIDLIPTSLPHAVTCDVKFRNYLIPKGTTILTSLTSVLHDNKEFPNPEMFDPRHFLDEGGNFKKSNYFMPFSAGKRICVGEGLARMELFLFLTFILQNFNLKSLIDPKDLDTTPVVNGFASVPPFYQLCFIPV
T5 sequence (P08684 whole entry): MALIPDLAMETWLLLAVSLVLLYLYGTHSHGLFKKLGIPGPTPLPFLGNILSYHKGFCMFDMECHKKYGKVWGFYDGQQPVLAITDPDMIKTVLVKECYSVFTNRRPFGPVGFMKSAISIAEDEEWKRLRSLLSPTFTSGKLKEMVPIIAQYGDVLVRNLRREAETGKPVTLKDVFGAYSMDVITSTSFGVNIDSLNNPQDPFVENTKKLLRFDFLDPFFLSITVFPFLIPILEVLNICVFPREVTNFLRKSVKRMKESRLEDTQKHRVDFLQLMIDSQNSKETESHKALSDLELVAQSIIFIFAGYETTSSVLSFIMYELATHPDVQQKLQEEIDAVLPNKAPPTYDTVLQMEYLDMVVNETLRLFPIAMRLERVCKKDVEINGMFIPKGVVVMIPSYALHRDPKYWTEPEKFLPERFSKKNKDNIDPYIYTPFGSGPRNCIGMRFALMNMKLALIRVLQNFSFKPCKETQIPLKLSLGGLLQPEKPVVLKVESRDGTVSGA
T4 sequence (P10635 whole entry): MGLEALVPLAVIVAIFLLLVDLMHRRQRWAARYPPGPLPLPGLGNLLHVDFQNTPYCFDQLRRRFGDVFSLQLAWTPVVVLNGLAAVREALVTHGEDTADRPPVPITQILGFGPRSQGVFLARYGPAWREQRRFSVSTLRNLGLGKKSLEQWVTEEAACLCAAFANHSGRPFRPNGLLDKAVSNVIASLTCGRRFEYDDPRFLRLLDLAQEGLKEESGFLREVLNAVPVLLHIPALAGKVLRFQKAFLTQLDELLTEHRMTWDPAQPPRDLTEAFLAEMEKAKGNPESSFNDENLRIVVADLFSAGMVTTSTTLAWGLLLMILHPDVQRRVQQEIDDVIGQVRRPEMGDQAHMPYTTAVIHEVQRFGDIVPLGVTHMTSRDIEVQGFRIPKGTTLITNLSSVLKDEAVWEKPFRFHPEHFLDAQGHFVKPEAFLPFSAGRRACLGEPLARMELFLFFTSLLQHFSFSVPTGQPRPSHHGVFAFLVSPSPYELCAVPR
T2 sequence (P11712 whole entry): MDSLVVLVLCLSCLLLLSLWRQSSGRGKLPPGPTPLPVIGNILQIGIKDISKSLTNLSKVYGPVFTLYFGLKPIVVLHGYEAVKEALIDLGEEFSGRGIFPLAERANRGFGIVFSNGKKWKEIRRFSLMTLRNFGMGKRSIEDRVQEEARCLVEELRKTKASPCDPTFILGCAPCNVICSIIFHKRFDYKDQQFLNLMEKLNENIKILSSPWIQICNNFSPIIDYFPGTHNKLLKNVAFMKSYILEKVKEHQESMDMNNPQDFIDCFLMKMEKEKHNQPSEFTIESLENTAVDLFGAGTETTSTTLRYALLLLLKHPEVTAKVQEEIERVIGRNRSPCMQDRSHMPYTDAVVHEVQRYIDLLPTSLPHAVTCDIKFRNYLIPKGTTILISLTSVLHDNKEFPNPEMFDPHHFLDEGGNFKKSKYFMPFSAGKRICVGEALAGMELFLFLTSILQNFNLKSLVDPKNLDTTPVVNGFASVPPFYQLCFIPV
Chain of Photinus pyralis (firefly) luciferase (P08659 whole entry): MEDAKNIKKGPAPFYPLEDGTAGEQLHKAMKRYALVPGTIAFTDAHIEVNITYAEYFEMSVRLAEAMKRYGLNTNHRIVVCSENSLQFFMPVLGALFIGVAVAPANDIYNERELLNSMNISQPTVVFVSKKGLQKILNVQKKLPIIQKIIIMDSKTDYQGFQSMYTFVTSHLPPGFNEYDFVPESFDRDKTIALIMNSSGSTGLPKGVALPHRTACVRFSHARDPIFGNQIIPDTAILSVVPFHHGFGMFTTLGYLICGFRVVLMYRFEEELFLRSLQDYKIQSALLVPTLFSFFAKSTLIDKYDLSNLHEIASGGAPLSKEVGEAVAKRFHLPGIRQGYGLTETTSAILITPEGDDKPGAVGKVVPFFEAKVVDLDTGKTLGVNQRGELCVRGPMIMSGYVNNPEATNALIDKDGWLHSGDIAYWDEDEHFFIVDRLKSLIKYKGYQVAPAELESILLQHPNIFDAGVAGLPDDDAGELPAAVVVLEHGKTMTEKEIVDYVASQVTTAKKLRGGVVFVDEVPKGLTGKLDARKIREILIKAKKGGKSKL

| Structure (SMILES) | pIC50 [1] | CYP1A2 Efficacy (in parenthesis) (human CYP1A2 [2]) | CYP2C9 Efficacy (in parenthesis) (human CYP2C9 [3]) | CYP2C19 Efficacy (in parenthesis) (human CYP2C19 [4]) | CYP2D6 Efficacy (in parenthesis) (human CYP2D6 [5]) | CYP3A4 Efficacy (in parenthesis) (CYP3A4 [6]) | pIC50 (human CYP1A2 [7]) | pIC50 (human CYP2C9 [8]) | pIC50 (human CYP2C19 [9]) | pIC50 (human CYP2D6 [10]) | pIC50 (CYP3A4 [11]) | pIC50 (human CYP2C9 [8]; [12]) | pIC50 (human CYP2D6 [10]; [13]) | Luciferase IC50 (half-maximal inhibitory concentration) [1] | CYP3A4 IC50 (half-maximal inhibitory concentration) (CYP3A4 [6]) | AC50 (human CYP1A2 [7]; CYP1A2 AC50 (half-maximal activity concentration)) | AC50 (human CYP2C9 [8]; CYP2C9 AC50 (half-maximal activity concentration)) | AC50 (human CYP2C19 [9]; CYP2C19 AC50 (half-maximal activity concentration)) | AC50 (human CYP2D6 [10]; CYP2D6 AC50 (half-maximal activity concentration)) | AC50 (CYP3A4 [11]; CYP3A4 AC50 (half-maximal activity concentration)) |
| --- | --- | --- | --- | --- | --- | --- | --- | --- | --- | --- | --- | --- | --- | --- | --- | --- | --- | --- | --- | --- |
| CCOP(=S)(OCC)SCn1c(=O)oc2cc(Cl)ccc21 [Phosalone] | 4.30 | 2.98 ± 0.74 (-99 ± 6) % | 1.21 ± 0.14 (-101 ± 6) % | 0.13 ± 0.05 (-148 ± 13) % | 15.88 ± 2.02 (-103 ± 4) % | 0.3 ± 0.07 (-85 ± 5) % | 5.53 | 5.92 | 6.89 | 4.80 | 6.52 | – | – | – | – | – | – | – | – | – |
| Clc1ccccc1-c1nc(-c2ccncc2)no1 [Pifexole] | 5.49 | 0.39 ± 0.12 (-91 ± 4) % | 6.98 ± 3.95 (-79 ± 12) % | 0.74 ± 0.41 (-105 ± 12) % | 20.06 ± 9.42 (-76 ± 17) % | 33.57 ± 4.62 (-77 ± 10) % | 6.41 | – | 6.13 | – | 4.47 | 5.16 | 4.70 | – | – | – | – | – | – | – |
| CCNP(=S)(OC)O/C(C)=C/C(=O)OC(C)C (stereo not drawn) [Propetamphos] | – | 2.25 ± 0.26 (-99 ± 4) % | 0.57 ± 0.11 (-102 ± 4) % | 0.08 ± 0.01 (-138 ± 6) % | 28.38 ± 3.26 (-120 ± 4) % | 1.05 ± 0.36 (-88 ± 2) % | 5.65 | 6.24 | 7.10 | 4.55 | 5.98 | – | – | Inactive | – | – | – | – | – | – |
| CCCC1COC(Cn2cncn2)(c2ccc(Cl)cc2Cl)O1 (stereo not drawn) [Propiconazole] | – | 24.72 ± 6.17 (-104 ± 9) % | 2.18 ± 0.37 (-104 ± 6) % | 0.52 ± 0.14 (-134 ± 10) % | 37.02 ± 2.51 (-73 ± 5) % | 0.06 ± 0.02 (-71 ± 3) % | 4.61 | – | 6.28 | – | 7.22 | 5.66 | 4.43 | Inactive | – | – | – | – | – | – |
| COC(=O)N(OC)c1ccccc1COc1ccn(-c2ccc(Cl)cc2)n1 [Pyraclostrobin] | 4.25 | 0.99 ± 0.24 (-102 ± 3) % | 5.35 ± 1.51 (-104 ± 6) % | 0.57 ± 0.25 (-152 ± 29) % | 32.63 ± 15.32 (-79 ± 28) % | 1.31 ± 0.09 (52 ± 7) % | 6.00 | – | 6.24 | – | – | 5.27 | 4.49 | – | 1.31 ± 0.09 (52 ± 7) µM | 990 nM | 5350 nM | 570 nM | 32600 nM | 1310 nM |
| CC(C)(C)C(O)(CCc1ccc(Cl)cc1)Cn1cncn1 (stereo not drawn) [Tebuconazole] | – | 31.85 ± 3.66 (-77 ± 8) % | 3.3 ± 0.22 (-104 ± 4) % | 0.45 ± 0.0 (-115 ± 9) % | 34.28 ± 2.23 (-82 ± 7) % | 0.21 ± 0.04 (-90 ± 1) % | 4.50 | – | 6.35 | – | 6.68 | 5.48 | 4.46 | Inactive | – | – | – | – | – | – |
| FC(F)C(F)(F)OCC(Cn1cncn1)c1ccc(Cl)cc1Cl (stereo not drawn) [Tetraconazole] | – | 6.09 ± 0.84 (-101 ± 7) % | 1.84 ± 0.12 (-114 ± 7) % | 0.02 ± 0.0 (-134 ± 5) % | 12.32 ± 3.08 (-113 ± 2) % | 0.25 ± 0.06 (-66 ± 2) % | 5.22 | – | 7.70 | – | 6.60 | 5.74 | 4.91 | Inactive | – | – | – | – | – | – |
| CCCOC/C(=N\c1ccc(Cl)cc1C(F)(F)F)n1ccnc1 [Triflumizole] | – | 9.3 ± 0.63 (-102 ± 6) % | 3.92 ± 0.98 (-103 ± 3) % | 0.36 ± 0.3 (-125 ± 6) % | 34.28 ± 2.23 (-99 ± 9) % | 0.21 ± 0.07 (-78 ± 2) % | 5.03 | – | 6.44 | – | 6.68 | 5.41 | 4.46 | Inactive | – | – | – | – | – | – |
